Patent publication US8835440B2, “Cyclic pyrimidin-4-carboxamides as CCR2 receptor antagonists for treatment of inflammation, asthma and COPD” (Boehringer Ingelheim International GmbH, priority 2008, dated 2014)

Biological target: T1, CCR2 (Homo sapiens, UniProt P41597)
T1 construct: Membranes were prepared from THP-1 cells; endogenous in cells; host or cells: THP-1 cells (membrane preparation)
T1 sequence (P41597 1-360 isoform P41597-2): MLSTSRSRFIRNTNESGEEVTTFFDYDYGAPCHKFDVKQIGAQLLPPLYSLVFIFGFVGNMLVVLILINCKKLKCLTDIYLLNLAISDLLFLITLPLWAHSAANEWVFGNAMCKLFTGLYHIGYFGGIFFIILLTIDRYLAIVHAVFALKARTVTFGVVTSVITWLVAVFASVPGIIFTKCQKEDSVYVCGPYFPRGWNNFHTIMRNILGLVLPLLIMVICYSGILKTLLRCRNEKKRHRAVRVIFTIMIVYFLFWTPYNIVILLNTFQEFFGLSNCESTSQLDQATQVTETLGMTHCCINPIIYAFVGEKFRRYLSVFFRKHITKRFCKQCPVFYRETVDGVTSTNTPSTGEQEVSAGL
Test: CCR2 receptor membrane binding assay ([125I]MCP-1, THP-1 cell membranes, SPA beads)
Settings: for Ki: dissociation constant hKi, [125I]MCP-1 binding to THP-1 membranes; for remaining activity at 10 µM: read-out: CCR2 % ctrl @ 10 μM
Method in brief: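 Human THP-1 monocytic cell membranes, pre-coupled to WGA-PVT SPA beads, were incubated with compound and [125I]MCP-1 (ca. 25000 cpm) in 25 mM HEPES pH 7.2, 5 mM MgCl2, 0.5 mM CaCl2, 0.2% BSA, at 1% DMSO final. Bound radioactivity was counted after 8 h, and Ki was obtained by iterative mass-action fitting.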

[1] = @ 10 μM test compound, THP-1 membranes

Row | SMILES | Ki | remaining activity at 10 µM [1] | CCR2 % ctrl @ 10 μM (@ 10 μM test compound, THP-1 membranes, 10 µM)
1 | Cc1c(NCc2ccc(OC(F)(F)F)cc2)ncnc1C(=O)N1CCC(N2CCC(O)CC2)CC1 [Example 5] | 616 nM | 26% | 
2 | Cc1ccc(CNc2ncnc(C(=O)N3CCC(N4CCOCC4)CC3)c2C)cc1Cl [Example 43] | 566 nM | 17% | 
3 | Cc1c(NCc2ccc(C(C)(C)C)cc2)ncnc1C(=O)N1CCC(N2CCC(O)CC2)CC1 [Example 7] | 306 nM | 16% | 
4 | CNC(=O)[C@H]1CCN(C2CCN(C(=O)c3ncnc(NCc4ccc(Cl)c(Cl)c4)c3C)CC2)C1 [Example 257] | 186 nM | 14% | 
5 | Cc1c(NCC2CCCCC2)ncnc1C(=O)N1CCC(N2CCC(O)CC2)CC1 [Example 108] | 627 nM | 20% | 
6 | Cc1c(NCc2ccc(Cl)cc2)ncnc1C(=O)N1CCC(N2CCC(O)CC2)CC1 [Example 110] | 527 nM | 28% | 
7 | Cc1nc(NCCc2ccc(Cl)c(Cl)c2)c(C)c(C(=O)N2CCC(N3CCC(O)CC3)CC2)n1 [Example 91] | 236 nM | 23% | 
8 | Cc1c(NCc2ccc(C(F)(F)F)cc2)ncnc1C(=O)N1CCC(N2CCC(O)CC2)CC1 [Example 9] | 974 nM | 32% | 
9 | Cc1c(NCCc2ccc(Cl)c(Cl)c2)ncnc1C(=O)N1CCC(N2CCC[C@H](C(N)=O)C2)CC1 [Example 175] | 434 nM | 14% | 
10 | Cc1c(NCc2ccc(C(C)(C)C)cc2)ncnc1C(=O)N1CCCN(C2CCCC2)CC1 [Example 286] | 965 nM | 19% | 
11 | Cc1c(NCc2ccc(C(C)(C)C)cc2)ncnc1C(=O)N1CCC(N2CC[C@@H](C(N)=O)C2)CC1 [Example 265] | 462 nM | 23% | 
12 | O=C(c1ncnc(NCc2cccc(-c3ccccc3)c2)c1Br)N1CCC(N2CCC(O)CC2)CC1 [Example 278] | 1080 nM | 32% | 
13 | Cc1c(NCc2cccc(Cl)c2)ncnc1C(=O)N1CCC(N2CCCCC2)CC1 [Example 140] | 692 nM | 16% | 
14 | Cc1c(NCC2COc3ccccc3C2)ncnc1C(=O)N1CCC(N2CCOCC2)CC1 (centres unmarked) [Example 50] | 928 nM | 22% | 
15 | Cc1ccc(CNc2ncnc(C(=O)N3CCC(N4CCCCC4)CC3)c2C)cc1F [Example 104] | 617 nM |  | 31 % ctrl
16 | Cc1c(NCCc2ccc(C(C)(C)C)cc2)ncnc1C(=O)N1CCC(N2CCC(O)CC2)CC1 [Example 112] | 378 nM | 21% | 
17 | CCc1c(NCc2cccc(-c3ccccc3)c2)ncnc1C(=O)N1CCC(N2CCC(O)CC2)CC1 [Example 282] | 1530 nM | 39% | 
18 | CNS(=O)(=O)C1CCN(C2CCN(C(=O)c3nc(C)nc(NCc4ccc(C(C)(C)C)cc4)c3C)CC2)CC1 [Example 262] | 224 nM | 13% | 
19 | Cc1c(CCc2ccc(C(C)(C)C)cc2)ncnc1C(=O)N1CCC(N2CCC(N(C)S(C)(=O)=O)CC2)CC1 [Example 272] | 155 nM | 8% | 
20 | CO[C@H]1CN(C2CCN(C(=O)c3ncnc(NCc4ccc(Cl)c(Cl)c4)c3C)CC2)CC[C@H]1NS(C)(=O)=O [Example 185] | 4210 nM | 53% | 
21 | Cc1c(NCCc2ccc(OC(F)(F)F)cc2)ncnc1C(=O)N1CCC(N2CCC(O)CC2)CC1 [Example 14] | 387 nM | 22% | 
22 | Cc1c(NCc2ccc(Cl)c(Cl)c2)ncnc1C(=O)N1CCC(N2Cc3ccccc3C2)CC1 [Example 183] | 426 nM | 45% | 
23 | Cc1c(NC2CCCCC2)ncnc1C(=O)N1CCC(N2CCC(O)CC2)CC1 [Example 28] | 4180 nM | 58% | 
24 | Cc1nc(NC2CCCC(c3ccccc3)C2)c(C)c(C(=O)N2CCC(N3CCC(NS(C)(=O)=O)CC3)CC2)n1 (centres unmarked) [Example 89] | 770 nM | 29% | 
25 | Cc1c(NCc2ccc(Cl)c(Cl)c2)ncnc1C(=O)N1CCC(N2CCC(C(F)(F)F)CC2)CC1 [Example 184] | 908 nM | 30% | 
26 | Cc1c(NCc2ccc(Cl)c(Cl)c2)ncnc1C(=O)N1CCC(N2CCCCCC2)CC1 [Example 235] | 460 nM | 26% | 
27 | CNC(=O)C1(C)CCN(C2CCN(C(=O)c3ncnc(NCc4ccc(C(C)(C)C)cc4)c3C)CC2)CC1 [Example 224] | 1230 nM | 35% | 

Now those with a lower Ki, led by results:

Row | Ki | remaining activity at 10 µM [1] | CCR2 % ctrl @ 10 μM (@ 10 μM test compound, THP-1 membranes, 10 µM) | SMILES
28 | 55 nM |  |  | Cc1c(NCc2ccc(C(C)(C)C)cc2)ncnc1C(=O)N1CCC(N2CCC3(CC2)CNC(=O)O3)CC1 [Example 228gj]
29 | 65 nM | 8% |  | Cc1c(NCc2ccc(C(C)C)cc2)ncnc1C(=O)N1CCC(N2CCC(N(C)S(C)(=O)=O)CC2)CC1 [Example 64]
30 | 63 nM | 7% |  | Cc1c(NCc2ccc(C(C)(C)C)cc2)ncnc1C(=O)N1CCC(N2CCC(NS(C)(=O)=O)CC2)CC1 [Example 69]
31 | 38 nM | 2% |  | Cc1c(NCC2Cc3ccccc3C2)ncnc1C(=O)N1CCC(N2CCC(NS(C)(=O)=O)CC2)CC1 [Example 73]
32 | 10 nM |  |  | Cc1c(NCC2CCc3ccccc3C2)ncnc1C(=O)N1CCC(N2CCC(N(C)S(C)(=O)=O)CC2)CC1 (centres unmarked) [Example 159pb]
33 | 32 nM | 1% |  | Cc1c(NCc2ccc(C(C)(C)C)cc2)ncnc1C(=O)N1CCC(N2CCC(N(C)S(C)(=O)=O)CC2)CC1 [Example 1]
34 | 19 nM |  |  | Cc1nc(NC[C@@H]2CC[C@H](c3ccc(C(F)(F)F)cc3)O2)c(C)c(C(=O)N2CCC(N3CCC(N(C)S(C)(=O)=O)CC3)CC2)n1 [Example 159ka]
35 | 38 nM | 6% |  | Cc1c(NCCc2ccc(Cl)c(Cl)c2)ncnc1C(=O)N1CCC(C(N)=O)(N2CCCCC2)CC1 [Example 252]
36 | 123 nM | 6% |  | Cc1c(NCc2ccc(C(C)(C)C)cc2)ncnc1C(=O)N1CCC(N2CCC(Oc3ccccn3)CC2)CC1 [Example 204]
37 | 22 nM |  |  | Cc1c(NCC2CCC(C)CC2)ncnc1C(=O)N1CCC(N2CCC(N(C)S(C)(=O)=O)CC2)CC1 (centres unmarked) [Example 159l]
38 | 108 nM | 5% |  | Cc1c(NCc2ccc(C(C)(C)C)cc2)ncnc1C(=O)N1CCC(N2CCC(C(C)(C)C)CC2)CC1 [Example 200]
39 | 145 nM |  |  | Cc1c(NCc2ccc(C(C)(C)C)cc2)ncnc1C(=O)N1CCC(N2CCC(Cc3cccnc3)C2)CC1 (centres unmarked) [Example 228gf]
40 | 28 nM |  |  | Cc1c(NCC2CCCCC2)ncnc1C(=O)N1CCC(N2CCC(N(C)S(C)(=O)=O)CC2)CC1 [Example 159e]
41 | 6 nM |  |  | Cc1ccc(C2CCCC(CNc3ncnc(C(=O)N4CCC(N5CCC(N(C)S(C)(=O)=O)CC5)CC4)c3C)C2)cc1 (centres unmarked) [Example 159za]
42 | 17 nM |  |  | Cc1cccc([C@H]2CC[C@H](CNc3ncnc(C(=O)N4CCC(N5CCC(N(C)S(C)(=O)=O)CC5)CC4)c3C)O2)c1 [Example 159ia]
43 | 38 nM | 3% |  | Cc1c(NCc2ccc(C(F)(F)F)c(Cl)c2)ncnc1C(=O)N1CCC(N2CCC(N(C)S(C)(=O)=O)CC2)CC1 [Example 62]
44 | 2 nM | 4% |  | COC1COCCC1NC1CCN(C(=O)c2ncnc(NCC3CCC[C@@H](c4ccccc4)C3)c2C)CC1 (some centres unmarked) [Example 228b]
